Data published in PMC7708446, “^18F-meta-fluorobenzylguanidine (^18F-mFBG) to monitor changes in norepinephrine transporter expression in response to therapeutic intervention in neuroblastoma models” (Scientific Reports, 2020).
Marks after values point to notes of the source that are not given here.

Test system: SK-N-BE(2)C xenografts
Test: Ex vivo biodistribution (γ-counter), mice bearing SK-N-BE(2)C xenografts
Format: in vivo
Settings: for ^18F-mFBG biodistribution 4 h p.i., Blood / ^18F-mFBG biodistribution 4 h p.i., Bone / ^18F-mFBG biodistribution 4 h p.i., Brown adipose / ^18F-mFBG biodistribution 4 h p.i., Heart / ^18F-mFBG biodistribution 4 h p.i., Kidney / ^18F-mFBG biodistribution 4 h p.i., Liver / ^18F-mFBG biodistribution 4 h p.i., Lungs / ^18F-mFBG biodistribution 4 h p.i., Muscle / ^18F-mFBG biodistribution 4 h p.i., Pancreas / ^18F-mFBG biodistribution 4 h p.i., Small intestine / ^18F-mFBG biodistribution 4 h p.i., Spleen / ^18F-mFBG biodistribution 4 h p.i., Tumour / ^18F-mFBG biodistribution 4 h p.i., Tumour:blood / ^18F-mFBG biodistribution 4 h p.i., Tumour:muscle: SK-N-BE(2)C
Procedure: All studies were conducted in compliance with licenses issued under the UK Animals (Scientific Procedures) Act 1986 and approved by the Institute of Cancer Research Animal Welfare and Ethical Review Body (AWERB) according to the United Kingdom National Cancer Research Institute Guidelines for Animal Welfare in Cancer Research (project license PCC916B22, Animals in Science Regulation Unit, Home Office Science, London, UK)[65]. Female Nu(NCr)-Foxn1nu mice (5–7 weeks; 20–22 g) obtained from an in-house breeding colony were used in the studies. Animals were housed in a temperature-controlled facility with 12 h on–12 h off light cycle and provided water and laboratory rodent food ad libitum. Subcutaneous xenografts were generated by injection of either Kelly (5 × 10^6/0.1 mL PBS/Matrigel 30% v/v; BD Matrigel Matrix, BD Bioscience, San Jose, California, US) or SK-N-BE(2)C (1 × 10^6/0.1 mL PBS/Matrigel) into the lower flank. For the treatment studies, AZD2014 stock solution in DMSO was diluted in PEG400 to a final concentration of 2 mg/mL (10% DMSO maximum). When tumours reached ~ 100 mm^3 (calliper measurements using formula: Volume = (Width(2) × Length)/2), mice were treated daily, for a total of either 1, 3 or 7 days, by oral gavage with AZD2014 (20 or 25 mg/kg/day) or vehicle control. Mice were monitored daily for body weight or other adverse effects.
When the tumours reached approximately 100–200 mm^3, mice were anaesthetised with an isoflurane/O2 mixture (1.5–2.0% v/v) and intravenously injected with either ^18F-mFBG (~ 7.5 MBq) or ^123I-mIBG (~ 20 MBq). Mice were then imaged using an Albira PET/SPECT/CT scanner (Bruker, Coventry, UK). Whole body PET static images were acquired after 1 and 4 h post-injection (p.i.) for 10 min with an energy window of 358 to 664 keV followed by CT acquisition. Acquisition, reconstruction and image analysis were performed as described previously. Following the final scan, the mice were sacrificed and the major organs were excised, weighed and their associated radioactivity was measured using a γ-counter. Biodistribution and image quantification were expressed as a percentage of injected dose per gram of tissue (%ID/g), whereby 1 cm^3 on PET acquisitions were assumed to equal 1 g (n ≥ 3 mice ± SD).

[1] = SK-N-BE(2)C xenografts, 4 h p.i.

## N=C(N)NCc1cccc([18F])c1 [^18F-mFBG, ^18F-meta-fluorobenzylguanidine]
[1]
  Tumour-to-blood ratio: 17.69 ± 10.00
  tumour-to-muscle ratio: 6.24 ± 3.64
SK-N-BE(2)C xenografts, 4 h p.i., n = 5
  tumour uptake: 2.96 ± 1.38 %ID/g
3 Day AZD2014 (20 mg/kg/day)
  ^18F-mFBG biodistribution 4 h p.i., Blood: 0.16 ± 0.02 %ID/g
  ^18F-mFBG biodistribution 4 h p.i., Bone: 2.42 ± 2.57 %ID/g
  ^18F-mFBG biodistribution 4 h p.i., Brown adipose: 5.32 ± 1.51^b %ID/g
  ^18F-mFBG biodistribution 4 h p.i., Heart: 3.20 ± 0.43^a %ID/g
  ^18F-mFBG biodistribution 4 h p.i., Kidney: 0.89 ± 0.13 %ID/g
  ^18F-mFBG biodistribution 4 h p.i., Liver: 1.74 ± 0.23 %ID/g
  ^18F-mFBG biodistribution 4 h p.i., Lungs: 1.04 ± 0.12 %ID/g
  ^18F-mFBG biodistribution 4 h p.i., Muscle: 0.55 ± 0.09 %ID/g
  ^18F-mFBG biodistribution 4 h p.i., Pancreas: 1.29 ± 0.51 %ID/g
  ^18F-mFBG biodistribution 4 h p.i., Small intestine: 4.88 ± 1.28 %ID/g
  ^18F-mFBG biodistribution 4 h p.i., Spleen: 2.27 ± 1.06 %ID/g
  ^18F-mFBG biodistribution 4 h p.i., Tumour: 3.95 ± 1.53 %ID/g
  ^18F-mFBG biodistribution 4 h p.i., Tumour:blood: 23.76 ± 6.20
  ^18F-mFBG biodistribution 4 h p.i., Tumour:muscle: 7.06 ± 1.79
1 day AZD2014 (20 mg/kg/day)
  ^18F-mFBG biodistribution 4 h p.i., Blood: 0.18 ± 0.04 %ID/g
  ^18F-mFBG biodistribution 4 h p.i., Bone: 4.55 ± 2.15^c %ID/g
  ^18F-mFBG biodistribution 4 h p.i., Brown adipose: 5.47 ± 0.45^b %ID/g
  ^18F-mFBG biodistribution 4 h p.i., Heart: 4.34 ± 2.38 %ID/g
  ^18F-mFBG biodistribution 4 h p.i., Kidney: 0.98 ± 0.04 %ID/g
  ^18F-mFBG biodistribution 4 h p.i., Liver: 1.63 ± 0.69 %ID/g
  ^18F-mFBG biodistribution 4 h p.i., Lungs: 1.27 ± 0.68 %ID/g
  ^18F-mFBG biodistribution 4 h p.i., Muscle: 0.59 ± 0.16 %ID/g
  ^18F-mFBG biodistribution 4 h p.i., Pancreas: 1.09 ± 0.42 %ID/g
  ^18F-mFBG biodistribution 4 h p.i., Small intestine: 4.79 ± 1.21 %ID/g
  ^18F-mFBG biodistribution 4 h p.i., Spleen: 2.93 ± 0.82 %ID/g
  ^18F-mFBG biodistribution 4 h p.i., Tumour: 3.29 ± 1.01 %ID/g
  ^18F-mFBG biodistribution 4 h p.i., Tumour:blood: 17.72 ± 2.35
  ^18F-mFBG biodistribution 4 h p.i., Tumour:muscle: 5.74 ± 1.77
1 day vehicle
  ^18F-mFBG biodistribution 4 h p.i., Blood: 0.18 ± 0.02 %ID/g
  ^18F-mFBG biodistribution 4 h p.i., Bone: 4.98 ± 2.18^c %ID/g
  ^18F-mFBG biodistribution 4 h p.i., Brown adipose: 5.14 ± 0.38^b %ID/g
  ^18F-mFBG biodistribution 4 h p.i., Heart: 4.38 ± 1.68 %ID/g
  ^18F-mFBG biodistribution 4 h p.i., Kidney: 0.79 ± 0.36 %ID/g
  ^18F-mFBG biodistribution 4 h p.i., Liver: 1.94 ± 0.30 %ID/g
  ^18F-mFBG biodistribution 4 h p.i., Lungs: 1.22 ± 0.37 %ID/g
  ^18F-mFBG biodistribution 4 h p.i., Muscle: 0.60 ± 0.13 %ID/g
  ^18F-mFBG biodistribution 4 h p.i., Pancreas: 1.01 ± 0.18 %ID/g
  ^18F-mFBG biodistribution 4 h p.i., Small intestine: 4.50 ± 0.24^b %ID/g
  ^18F-mFBG biodistribution 4 h p.i., Spleen: 3.19 ± 0.63 %ID/g
  ^18F-mFBG biodistribution 4 h p.i., Tumour: 2.76 ± 1.14 %ID/g
  ^18F-mFBG biodistribution 4 h p.i., Tumour:blood: 15.27 ± 5.32
  ^18F-mFBG biodistribution 4 h p.i., Tumour:muscle: 4.44 ± 0.94
3 day vehicle
  ^18F-mFBG biodistribution 4 h p.i., Blood: 0.18 ± 0.08 %ID/g
  ^18F-mFBG biodistribution 4 h p.i., Bone: 1.64 ± 0.45 %ID/g
  ^18F-mFBG biodistribution 4 h p.i., Brown adipose: 5.15 ± 0.78^b %ID/g
  ^18F-mFBG biodistribution 4 h p.i., Heart: 3.64 ± 0.89 %ID/g
  ^18F-mFBG biodistribution 4 h p.i., Kidney: 1.13 ± 0.47 %ID/g
  ^18F-mFBG biodistribution 4 h p.i., Liver: 1.96 ± 0.02 %ID/g
  ^18F-mFBG biodistribution 4 h p.i., Lungs: 1.15 ± 0.23 %ID/g
  ^18F-mFBG biodistribution 4 h p.i., Muscle: 0.53 ± 0.19 %ID/g
  ^18F-mFBG biodistribution 4 h p.i., Pancreas: 1.25 ± 0.51 %ID/g
  ^18F-mFBG biodistribution 4 h p.i., Small intestine: 5.32 ± 0.11 %ID/g
  ^18F-mFBG biodistribution 4 h p.i., Spleen: 2.08 ± 1.29 %ID/g
  ^18F-mFBG biodistribution 4 h p.i., Tumour: 2.39 ± 0.10 %ID/g
  ^18F-mFBG biodistribution 4 h p.i., Tumour:blood: 14.47 ± 4.61
  ^18F-mFBG biodistribution 4 h p.i., Tumour:muscle: 4.89 ± 1.48
7 day AZD2014 (20 mg/kg/day)
  ^18F-mFBG biodistribution 4 h p.i., Blood: 0.32 ± 0.14 %ID/g
  ^18F-mFBG biodistribution 4 h p.i., Bone: 0.63 ± 0.54 %ID/g
  ^18F-mFBG biodistribution 4 h p.i., Brown adipose: 8.08 ± 0.72 %ID/g
  ^18F-mFBG biodistribution 4 h p.i., Heart: 4.17 ± 1.63 %ID/g
  ^18F-mFBG biodistribution 4 h p.i., Kidney: 1.02 ± 0.15 %ID/g
  ^18F-mFBG biodistribution 4 h p.i., Liver: 2.64 ± 0.46 %ID/g
  ^18F-mFBG biodistribution 4 h p.i., Lungs: 1.33 ± 0.36 %ID/g
  ^18F-mFBG biodistribution 4 h p.i., Muscle: 0.75 ± 0.02 %ID/g
  ^18F-mFBG biodistribution 4 h p.i., Pancreas: 3.08 ± 1.80 %ID/g
  ^18F-mFBG biodistribution 4 h p.i., Small intestine: 6.87 ± 1.86 %ID/g
  ^18F-mFBG biodistribution 4 h p.i., Spleen: 1.64 ± 0.46 %ID/g
  ^18F-mFBG biodistribution 4 h p.i., Tumour: 2.61 ± 1.19 %ID/g
  ^18F-mFBG biodistribution 4 h p.i., Tumour:blood: 8.06 ± 2.57
  ^18F-mFBG biodistribution 4 h p.i., Tumour:muscle: 3.50 ± 1.62
7 day vehicle
  ^18F-mFBG biodistribution 4 h p.i., Blood: 0.17 ± 0.06 %ID/g
  ^18F-mFBG biodistribution 4 h p.i., Bone: 1.13 ± 0.20 %ID/g
  ^18F-mFBG biodistribution 4 h p.i., Brown adipose: 6.08 ± 2.45 %ID/g
  ^18F-mFBG biodistribution 4 h p.i., Heart: 5.87 ± 2.80 %ID/g
  ^18F-mFBG biodistribution 4 h p.i., Kidney: 1.09 ± 0.16 %ID/g
  ^18F-mFBG biodistribution 4 h p.i., Liver: 2.15 ± 0.30 %ID/g
  ^18F-mFBG biodistribution 4 h p.i., Lungs: 1.86 ± 0.64 %ID/g
  ^18F-mFBG biodistribution 4 h p.i., Muscle: 0.67 ± 0.07 %ID/g
  ^18F-mFBG biodistribution 4 h p.i., Pancreas: 2.81 ± 1.72 %ID/g
  ^18F-mFBG biodistribution 4 h p.i., Small intestine: 6.22 ± 0.35 %ID/g
  ^18F-mFBG biodistribution 4 h p.i., Spleen: 1.75 ± 0.67 %ID/g
  ^18F-mFBG biodistribution 4 h p.i., Tumour: 2.17 ± 1.01 %ID/g
  ^18F-mFBG biodistribution 4 h p.i., Tumour:blood: 15.55 ± 13.55
  ^18F-mFBG biodistribution 4 h p.i., Tumour:muscle: 3.36 ± 1.90
